Laboratory results published in EP0678516B1, “Preparation of 2-bromo-5-(2-bromo-2-nitrovinyl)-furan and its use as microcide” (CENTRO DE BIOACTIVOS QUIMICOS DE LA UNIVERSIDAD CENTRAL DE …, priority 1994, dated 1995).

Assays:
[1] = test system: Streptococcus agalactiae and Staphylococcus aureus; experiment: Intracisternal treatment of clinical mastitis; assay type: in vivo, femal oxes
From the text: The active principle in a concentration of 0.1 % is applied by intracisternal route daily for three consecutive days in femal oxes clinically affected by mastitis of morbid catarrh purulen course types, in which the isolated micro-organisms were Streptococcus agalactiae and Staphylococcus aureus. As a control medicament the mammary infusion of neomicine was used.

[2] = test system: septic puerperal metritis; experiment: Treatment of septic puerperal metritis; assay type: in vivo, female oxes; details: G-1 1.5% oil solution intrauterine, Tetracycline abdominal aorta route
Experimental: The treatment consisted in applying 40 ml for three consecutive days at intervals of 24 hours from the diagnosis of the disease process. Treatment was compared with intrasoric tetracyclin.

[3] = test system: conjunctivitis and Blefaritis; experiment: Clinical test, external treatment of eye infections in animals; assay type: in vivo; details: Rabbits
From the text: (§1) The effectiveness of the active principle against bacterial eye diseases in: 9435 animal eyes affected with queratoconjunctivitis; 8093 of cattle and 1342 of other species (sheep, rabbits, dogs, horses, pigs, cats, guinea-pigs and birds).
(§2) In some cases the result of the medicament was compared with others habitually used for these treatments.
(§3) Read: 1 = Bovine infectious queratoconjunctivitis (PE) = small scale or clinical test in conditions controlled on a small scale (U) = ointment (I) = injectable n = number of eyes treated P± = Average of treatment for clinical recuperation (weighted average) Rc = clinical recuperation 2 = conjunctivitis 3 = Querratitis 4= Queratoconjunctivitis 5= Blefaritis 6= general eye infection 7= clinical extension or test compared in conditions of extension (*) = Massive application in therapeutic survey in the new different animal species (G-1) = refers to 2-bromo-5-(2-bromo-2-nitro-vinyl)-furan

[4] = test system: conjunctivitis, Querratitis, Queratoconjunctivitis; experiment: as above; assay type: in vivo; details: Dogs
From the text: as §1, §2, §3

[5] = test system: Bovine infectious queratoconjunctivitis; experiment: Clinical test, external treatment of eye infections in animals (extension); assay type: in vivo; details: Cattle (E)
From the text: as §1, §2, §3

[6] = test system: Bovine infectious queratoconjunctivitis; experiment: Clinical test, external treatment of eye infections in animals; assay type: in vivo; details: Cows (PE), small scale controlled clinical test
From the text: as §1, §2, §3

neomicine [reference compound]
Recuperated n (affected parts) ([1]; G-I 0.1% intracisternal daily for three days (57 parts), neomicine mammary infusion (12 parts)): 12 | Recuperated % (clinical recuperation of the affected parts) ([1]; G-I 0.1% intracisternal daily for three days, neomicine mammary infusion): 100%

CN(C)[C@@H]1C(O)=C(C(N)=O)C(=O)[C@@]2(O)C(O)=C3C(=O)c4c(O)cccc4[C@@](C)(O)[C@H]3C[C@@H]12 [Tetracycline, reference compound]
Recuperated n ([2]; 27 females, 19 females): 13 | IIA (Artificial insemination index) [2]: 1.78± 1.99b | Recuperated % [2]: 68.4% | T-R (Average of treatment interval of clinical recuperation) [2]: 39 days | IIA (Artificial insemination index) ([2]; listed as tetracycline): 1.78 ± 1.99

O=C(N[C@H](CO)[C@H](O)c1ccc([N+](=O)[O-])cc1)C(Cl)Cl [Chloran-fenicol-(U), Chloran-fenicol]
P± (Average of treatment for clinical recuperation, weighted average) [3]: 3.2a | P± (Average of treatment for clinical recuperation, weighted average) [4]: 7.3b | Re (clinical recuperation) [4]: 81.5a % | P± (Average of treatment for clinical recuperation, weighted average) [5]: 3.4a | Re (clinical recuperation) [5]: 86.6a %

O=C(N[C@H](CO)[C@H](O)c1ccc([N+](=O)[O-])cc1)C(Cl)Cl [Chloran-fenicol-(I), Chloran-fenicol]
P± (Average of treatment for clinical recuperation, weighted average) [6]: 3.1ab | Re (clinical recuperation) [6]: 80.6ba %
